# Earlier results as cited in patent US4291169A, “Substituted naphthoic acids” (American Cyanamid Company, priority 1980, dated 1981).
# Experiments:
# [1] = compared with cysteine
# corneal ulceration = conditions: human
# alkali burned rabbit = conditions: directly applied to corneal ulcerations
# collagenase [2] = conditions: Thromb. Res., 10(4), 605-11 (1977)
# collagenase [3] = conditions: Woolley et al. (1978); Seifter and Harper (1971)
molecule,measurement,setting,value
CC(=O)N[C@@H](CS)C(=O)O [acetylcysteine],stability (in words),[1],greater stability
same,effect in treatment of acute and chronic corneal ulceration (in words),corneal ulceration,effective in the treatment of acute and chronic corneal ulceration
same,frequency of ulceration (in words),alkali burned rabbit,reduce the frequency of ulceration
O=C([O-])CN(CCN(CC(=O)[O-])CC(=O)[O-])CC(=O)[O-].[Ca+2].[Ca+2] [Calcium ethylenediaminetetraacetate],frequency of ulceration (in words),alkali burned rabbit,reduce the frequency of ulceration
Cc1ccc(C(=O)Nc2ccc(S(=O)(=O)O)c3cc(S(=O)(=O)O)cc(S(=O)(=O)O)c23)cc1NC(=O)c1cccc(NC(=O)Nc2cccc(C(=O)Nc3cc(C(=O)Nc4ccc(S(=O)(=O)O)c5cc(S(=O)(=O)O)cc(S(=O)(=O)O)c45)ccc3C)c2)c1 [Suramin],inhibition of the activity of collagenase (in words),collagenase [2],not inhibiting the action of collagenase
O[C@H](CS)[C@H](O)CS (relative stereo) [dithiothretol],inhibition of connective tissue destruction / collagenase (in words),collagenase [3],collagenase inhibitors
"c1cnc2c(c1)ccc1cccnc12 [1,10-phenanthroline]",inhibition of connective tissue destruction / collagenase (in words),collagenase [3],collagenase inhibitors
N[C@@H](CS)C(=O)O [cysteine],inhibition of connective tissue destruction / collagenase (in words),collagenase [3],collagenase inhibitors
same,effect in treatment of acute and chronic corneal ulceration (in words),corneal ulceration,effective in the treatment of acute and chronic corneal ulceration
sodium auriothiomalate,inhibition of connective tissue destruction / collagenase (in words),collagenase [3],collagenase inhibitors
"α2 -macroglobulin: Naturally occurring collagnase inhibitors include the serum components, α2 -macroglobulin and β1-anticollagenase",inhibition of connective tissue destruction / collagenase (in words),collagenase [3],Naturally occurring collagnase inhibitors
Cc1cc(-c2ccc(/N=N/c3c(S(=O)(=O)O)cc4cc(S(=O)(=O)O)cc(N)c4c3O)c(C)c2)ccc1/N=N/c1c(S(=O)(=O)O)cc2cc(S(=O)(=O)O)cc(N)c2c1O [trypan blue],inhibition of the activity of collagenase (in words),collagenase [2],"inhibiting the activity of collagenase, or a proteinase contaminant in the collagenase preparation"
